Read-outs that look alike come from different tables or passages of the source.
Tests used:
[1] = test system: Formosan subterranean termites; format: in vivo; details: for Worker Mortality, Mean ± S.D.: workers only
Experimental: The amount of nootkatone isolated from the vetiver oil was insufficient to test for termite repellant activity. Nootkatone was therefore purchased from a commercial source (Lancaster Synthesis Inc., Windham, N.H.). A three-chambered plastic container was used as described above in Example 2. A small hole was melted at the bottom of each of the two inner walls to connect the chambers. Four replicate chambers were used for each concentration of nootkatone (μg/g of sand) tested: 0, 10 μg/g, 20 μg/g, 100 μg/g, and 200 μg/g. For each concentration, the nootkatone in 25 ml ethyl alcohol was mixed with 500 g #4 blasting sand as described in Example 2. The sand was dried overnight. The next day, 115 g of treated sand was added to the middle chamber; 115 g untreated sand was added to one end chamber, and a weighted filter paper (Whatman #1, 55 mm) was placed in the opposite end chamber. The filter paper had been dried at 70° C. for 3 hr and cooled to room temperature before weighing. Then 10 ml ddH2O was added to each chamber with sand and 200 μl ddH2O was added to the filter paper. Four containers with no nootkatone served as negative controls. Fifty worker and 5 soldier termites from a single colony collected in Algiers, La., were placed in each untreated sand chamber. The chambers were covered and kept in a dark incubator at 29° C.
On the 16th day, the number of live termites was counted, and the bottom of each container was scanned to determine tunneling length as described in Example 2. The filter paper from each container was removed, cleaned, dried at 70° C. for 3 hr, cooled, and finally weighed.
Between-treatment differences in filter paper weight, mortality, and tunnel length in the treated compartments were compared by analysis of variance (ANOVA) and Tukey's Studentized Range Test. The results are presented in Tables 4, 5, and 6 and in FIGS. 1-3.

[2] = test system: Formosan subterranean termites; assay: Feeding and tunneling experiment with treated balsa wood; format: in vivo, Coptotermes formosanus; details: data not shown
Experimental: Balsa wood (5 cm×5 cm×0.5 mm) was soaked for 1 hr in a 1% ethanol solution of either vetiver oil, nootkatone, TIM-BOR®, or an ethanol control. The treated wood was then dried and allowed to air until used in the experiments. The experiments were run at one, three, and six months after the wood was treated. The feeding and tunneling experimental procedure was as described in Example 2, except that in place of the filter paper as food for the termites, treated balsa wood was placed in each end compartment; and untreated sand was placed in all three chambers. Into the center chamber was added 225 workers and 25 soldiers collected from two large Formosan termite colonies in New Orleans, La. Three replicate containers for each of the two colonies and for each treatment of balsa wood were monitored for 8 days. Tunneling activity was periodically checked on days 3, 5, and 7 by scanning the bottoms of the containers. On day 8, the balsa wood was removed and weighed to determine wood consumption.

[3] = test system: humans; details: use in perfumery and flavor industries; cited from earlier work
[4] = test system: termites; assay: Quick petri dish termite distribution assay of α-cedrene (treated vs untreated sand); format: in vivo; details: 100 μg/dish
Experimental: The termite bio-activity of α-cedrene, a component of vetiver oil, was tested using a commercially available product (Fluka, a division of Sigma-Aldrich, Inc., St. Louis, Mo.). A new method for screening compounds for termite bio-activity was developed that was faster than the bioassay described in Example 2. Five cm diameter petri dishes with lids were used. Two ml of hot agar solution (1.5 g/100 ml ddH2O) was spread evenly in the bottom of each dish and allowed to cool. The agar solution provided moisture for the termites and held the sand in place. The sand was autoclaved for 30 min, the alcohol with sample added, and dried in an oven. For three dishes, one half of the bottom of each dish was covered with 1.5 g treated sand mixed with a total of 100 μg α-cedrene per dish, dissolved in 250 μl ethanol, and the other half with 1.5 g untreated sand (only ethanol). The sand completely covered the agar, but was not thick enough to conceal tunneling termites. Three dishes were prepared as a control with only untreated sand in each side. Finally, ten termites were added to each dish, and the dishes were covered to eliminate light.
The termite distribution in each dish, measured by counting the number of termites on the untreated half of the dish, was examined each hour for up to 8 hr. […] Therefore the extract was considered a repellent. The extract was considered toxic if some or all termites behaved sluggishly, were moribund or dead.

Q: With `C=C(C)C1CCC2=CC(=O)CC(C)C2(C)C1` (stereo not shown) [nootkatone, 4,4a5,6,7,8-hexahydro-6-isopropenyl-4,4a-dimethyl-2(3H)-naphthalenone] as the compound, how does the “Filter Paper Consumption, Mean ± S.D.” value ([1]; 10 μg/gm sand, 16th day) read?
A: 0.0019 ± 0.002641 gm

Q: And the “Tunnel Length in Treated Compartment, Mean ± S.D.” value (shortened to “Tunnel Length”) ([1]; 10 μg/gm sand, 16th day)?
A: 7.225 ± 5.155 cm

Q: What about the “Worker Mortality, Mean ± S.D.” value ([1]; 10 μg/gm sand, 16th day) of the same compound?
A: 88.50 ± 10.12

Q: And the “Filter Paper Consumption, Mean ± S.D.” value ([1]; 20 μg/gm sand, 16th day)?
A: 0.000525 ± 0.000709 gm

Q: And the “Tunnel Length” value ([1]; 20 μg/gm sand, 16th day)?
A: 0.000 ± 0.000 cm

Q: And the “Worker Mortality, Mean ± S.D.” value ([1]; 20 μg/gm sand, 16th day)?
A: 87.00 ± 18.22

Q: What about the “Filter Paper Consumption, Mean ± S.D.” value ([1]; 100 μg/gm sand, 16th day) of the same compound?
A: 0.000025 ± 0.000050 gm

Q: And the “Tunnel Length” value ([1]; 100 μg/gm sand, 16th day)?
A: 0.000 ± 0.000 cm

Q: And the “Worker Mortality, Mean ± S.D.” value ([1]; 100 μg/gm sand, 16th day)?
A: 90.50 ± 11.70

Q: What about the “Filter Paper Consumption, Mean ± S.D.” value ([1]; 200 μg/gm sand, 16th day) of the same compound?
A: 0.000275 ± 0.00055 gm

Q: What about the “Tunnel Length” value ([1]; 200 μg/gm sand, 16th day) of the same compound?
A: 0.000 ± 0.000 cm

Q: And the “Worker Mortality, Mean ± S.D.” value ([1]; 200 μg/gm sand, 16th day)?
A: 95.00 ± 8.718

Q: And the worker mortality ([1]; all chambers where the nootkatone concentration was ≦100 μg/g sand)?
A: Ninety percent mortality or greater

Q: What about the “tunneling in the middle chamber” value ([1]; concentrations higher than 10 μg/g, 16th day) of the same compound?
A: no tunneling was visible

Q: And the “consumption of filter paper” value ([1]; concentrations higher than 20 μg/g)?
A: Almost no consumption of filter paper

Q: What about the “lowest concentration effective as repellent and toxicant (decreased tunneling and feeding, increased mortality)” value ([1]; in sand) of the same compound?
A: 10 µg/g

Q: And the “feeding as measured by loss of filter paper weight vs control” value ([1]; lowest concentration (10 μg/g))?
A: significantly decreased feeding

Q: What about the “tunneling activity in middle chamber” value ([1]; lowest concentration of 10 μg/g, 16th day) of the same compound?
A: substantially decreased the tunneling activity

Q: What about the “ranking of effect on wood consumption” value ([2]; 1 and 3 month interval after wood treatment) of the same compound?
A: greatest effect on decreasing wood consumption

Q: And the “wood consumption vs control group” value ([2]; balsa wood soaked in 1% ethanol solution, 1, 3 and 6 months after treatment, day 8)?
A: consumed less wood than the control group

Q: What about the “effectiveness as a termite repellent” value ([2]; six months after the initial treatment of the wood sample) of the same compound?
A: retained their effectiveness

Q: What about the “reduction of wood consumption compared with borate solution” value ([2]; six months after wood treatment) of the same compound?
A: as effective as the borate solution

Q: What about the “tunneling activity of the termites” value ([2]; treated balsa wood, even after three months) of the same compound?
A: substantially reduced with vetiver oil and especially with nootkatone

Q: And the toxicity to humans [3]?
A: essentially non-toxic to humans

Q: Which termite deaths [4] does the source give for `CC1=CC[C@@]23C[C@@H]1C(C)(C)[C@@H]2CC[C@H]3C` [α-Cedrene, α-cedrene] here?
A: None of the termites died

Q: And the repellency for termites ([4]; 2-3 h time frame)?
A: weak repellent

Q: And the “Percent of termites on the untreated side (sum of the three replicates)” value (from here on “Percent of termites”) ([4]; 1 hr)?
A: 50%

Q: What about the “Percent of termites” value ([4]; 2 hr) of the same compound?
A: 93.3%

Q: What about the “Percent of termites” value ([4]; 3 hr) of the same compound?
A: 86.7%

Q: And the “Percent of termites” value ([4]; 4 hr)?
A: 63.3%

Q: And the “Percent of termites” value ([4]; 24 hr)?
A: 63.3%
